The record followed here is US20210137898A1, “METHODS TO TREAT GLIOMAS USING A STAT3 INHIBITOR” (Mayo Foundation for Medical Education and Research, priority 2017, published 2021).

Data set [1] relates to H3K27me3 in H3K27M tumor cells (Peds8). In words: Global H3K27 trimethylation in H3K27M tumor cells after treatment. Type of data set: cell-based. Conditions: vs no treatment (NT), FIG. 6B-D. How it is done: (§1) The role of STAT3 in midline H3K27M tumors (e.g., diffuse midline H3K27M tumors) has not been studied. To further validate STAT3 signaling as a potential drug target in these patients, it was determined if STAT3 is required for proliferation of H3K27M cells. […] Because of the critical dependence of STAT3 signaling in H3K27M tumor cells, the activity of STAT3 (pSTAT3) would be elevated in patients with DIPG tumors. Using treatment naive surgical samples from DIPG patients, an increase (>10-fold) in pSTAT3 levels was observed as compared to non-neoplastic brain tissues from other surgeries (FIG. 5A). Using large cohorts from published data sets, it was also seen a >2-fold increase in STAT3 mRNA expression (RNA-seq) in DIPG patients compared to normal brainy (FIG. 5B). In addition, pSTAT3 expression levels were increased in H3K27M cell lines compared to WT lines in both pediatric and adult high-grade gliomas (FIG. 6). […] The data presented supports a method of treating glioma with H3K27M mutation by restoration of methylation pattern. In one example, the methylation pattern is restored by a H3K27me3 demethylase inhibitor (e.g., GSK-J4).

The test system of data set [2] is Peds8 H3K27M cells. The data set can be described thus: Cell viability, STAT3 inhibitors, H3K27M cells Peds8. Type of data set: cell-based. How it is done: (§2) Results are mean±SD of three independent experiments. B and C. H3K27M cells (Peds8 and DIPG8) are selectively sensitive to inhibition by STAT3 inhibitors. […] C.
as §1

The subject of data set [3] is H3K27M tumor Peds17. Set-up: species or system mice. To be noted: mouse, in vivo, po. How it is done: H3K27M tumor Peds17 treated with STAT3 inhibitor WP1066 (20 mg/kg oral gavage) vs. control (DMSO) for 8 weeks. […] Cohorts of mice (n=10/group), were implanted in the brainstem and BLI was performed weekly using IVIS Lumina imaging system using luciferase transfected tumor cells.
To validate STAT3 as a therapeutic target for H3K27M tumors, the effects on tumor growth with WP1066 were evaluated in intracranial orthotopic xenografts (FIG. 7).

Data set [4] deals with WT SF9427 cell line. In words: Cell viability, STAT3 inhibitors, WT SF9427 cell line. Type of data set: cell-based. Conditions: WT SF9427 cells, FIG. 4B/4C. How it is done: as §2, §1
Data set [5] relates to DIPG8 H3K27M cells. In words: Cell viability, STAT3 inhibitors, H3K27M cells DIPG8. Type of data set: cell-based. Conditions: FIG. 4B/4C. How it is done: as §2, §1

On to `CCOC(=O)CCNc1cc(N2CCc3ccccc3CC2)nc(-c2ccccn2)n1` [GSKJ4], for which the H3K27me3 level entry in data set [1] is recorded as “increases H3K27me3”.

Turning to `C[C@H](NC(=O)/C(C#N)=C/c1cccc(Br)n1)c1ccccc1` [WP1066], the IC50 – broadly, the midpoint of a concentration-inhibition curve – is 1900 nM in data set [2] (Peds8 (H3K27M) cells, FIG. 4B/4C); 62300 nM in data set [4]; 2500 nM in data set [5]. In addition, in data set [2] (two H3K27M DIPG cell lines, much less in WT SF9427 cell line), the “cell viability of two H3K27M DIPG cell lines” value is “inhibited cell viability”. Moreover, in data set [3], the “toxicities in the mice” value is reported as “no toxicities were noted”. For the same compound, the H3K27me3 level result in data set [1] is listed as “increases H3K27me3”.
